According to patent US6914045B2, “Glycopeptide antibiotics” (Wyeth Holdings Corporation, priority 2001, dated 2005):
Converted amounts (≈) assume the structure as drawn.

How the values were obtained:
Enterococcus sp. = assay: in vitro antibacterial evaluation, MIC by broth dilution; assay type: cell-based; details: broth dilution, 18 hours at 35° C.
Outline: (§1)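 Inoculum 5×10^5 CFU/mL; concentrations 64 to 0.06 μg/mL; MIC defined as lowest inhibitory level. Conducted by broth dilution under NCCLS guidelines.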

Escherichia coli = assay: as above; assay type: cell-based; details: 18 hours at 35° C.
Outline: as §1

Staphylococcus sp. = assay: as above; assay type: cell-based; details: broth dilution, 18 hours at 35° C.
Outline: as §1

Streptococcus sp. = assay: as above; assay type: cell-based; details: broth dilution, 18 hours at 35° C.
Outline: as §1

[1] = test system: Enterococcus faecalis (GC 6189); assay: acute lethal infection in mice; assay type: in vivo; details: female CD-1 mice, intraperitoneal challenge, intravenous 30 min. after infection, 7 day survival
Outline: (§2)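 Intraperitoneal challenge of female CD-1 mice with a bacterial dose lethal to untreated animals within 24-48 hr; single iv treatment 30 min later, 5 mice per dose level. Survival is scored at day 7 and pooled from three experiments to give the median effective dose.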

[2] = test system: Staphylococcus aureus-SMITH (GC 4543); assay: acute lethal infection in mice; assay type: in vivo; details: acute lethal infection, female CD-1 mice, intraperitoneal challenge, intravenous 30 min. after infection, 7 day survival
Outline: as §2

CC(c1ccccc1)C1NC(=O)CNC(=O)C(CO)NC(=O)C(C(O)C2CNC(=N)N2C2OC(CO)C(O)C(O)C2O)NC(=O)C(C(O)C2CNC(=N)N2)NC(=O)C(Cc2ccc(OC3OC(CO)C(OC4OC5COC(Cc6ccc(F)cc6)OC5C(O)C4O)C(O)C3O)cc2)NC1=O (stereo not drawn) [Example 121, Cyclo[glycyl-β-methylphenylalanyl-O-[4-O-[4,6-O-(4-fluorophenethylidene)hexopyranosyl]-hexopyranosyl]tyrosyl-3-(2-iminoimidazolidin-4-yl)seryl-3-(3-hexopyranosyl-2-iminoimidazolidin-4-yl)serylseryl]]
MIC Enterococcus avium (GC 4558) (Enterococcus sp.; Enterococcus avium (GC 4558)): 4 µg/mL (≈ 2.83 µM)
MIC Enterococcus faecalis (ATCC 29212) (Enterococcus sp.; Enterococcus faecalis (ATCC 29212)): 2 µg/mL (≈ 1.41 µM)
MIC Enterococcus faecalis (GC 2242) (Enterococcus sp.; Enterococcus faecalis (GC 2242)): 2 µg/mL (≈ 1.41 µM)
MIC Enterococcus faecalis (GC 2691) (Enterococcus sp.; Enterococcus faecalis (GC 2691)): 4 µg/mL (≈ 2.83 µM)
MIC Enterococcus faecalis (GC 3059) (Enterococcus sp.; Enterococcus faecalis (GC 3059)): 2 µg/mL (≈ 1.41 µM)
MIC Enterococcus faecalis (GC 4552) (Enterococcus sp.; Enterococcus faecalis (GC 4552)): 2 µg/mL (≈ 1.41 µM)
MIC Enterococcus faecalis (GC 4553) (Enterococcus sp.; Enterococcus faecalis (GC 4553)): 4 µg/mL (≈ 2.83 µM)
MIC Enterococcus faecalis (GC 4554) (Enterococcus sp.; Enterococcus faecalis (GC 4554)): 2 µg/mL (≈ 1.41 µM)
MIC Enterococcus faecalis (GC 6189) (Enterococcus sp.; Enterococcus faecalis (GC 6189)): 2 µg/mL (≈ 1.41 µM)
MIC Enterococcus faecium (GC 2243) (Enterococcus sp.; Enterococcus faecium (GC 2243)): 2 µg/mL (≈ 1.41 µM)
MIC Enterococcus faecium (GC 4556) (Enterococcus sp.; Enterococcus faecium (GC 4556)): 2 µg/mL (≈ 1.41 µM)
MIC Enterococcus faecium (GC 4557) (Enterococcus sp.; Enterococcus faecium (GC 4557)): 2 µg/mL (≈ 1.41 µM)
MIC Enterococcus faecalis (ATCC 29212) (Enterococcus sp.; strain ATCC 29212): 2 µg/mL (≈ 1.41 µM)
MIC Enterococcus faecalis (GC 2242) (Enterococcus sp.; strain GC 2242): 2 µg/mL (≈ 1.41 µM)
MIC Enterococcus faecium (GC 2243) (Enterococcus sp.; strain GC 2243): 2 µg/mL (≈ 1.41 µM)
MIC Enterococcus faecalis (GC 2691) (Enterococcus sp.; strain GC 2691): 4 µg/mL (≈ 2.83 µM)
MIC Enterococcus faecalis (GC 3059) (Enterococcus sp.; strain GC 3059): 2 µg/mL (≈ 1.41 µM)
MIC Enterococcus faecalis (GC 4552) (Enterococcus sp.; strain GC 4552): 2 µg/mL (≈ 1.41 µM)
MIC Enterococcus faecalis (GC 4553) (Enterococcus sp.; strain GC 4553): 4 µg/mL (≈ 2.83 µM)
MIC Enterococcus faecalis (GC 4554) (Enterococcus sp.; strain GC 4554): 2 µg/mL (≈ 1.41 µM)
MIC Enterococcus faecium (GC 4556) (Enterococcus sp.; strain GC 4556): 2 µg/mL (≈ 1.41 µM)
MIC Enterococcus faecium (GC 4557) (Enterococcus sp.; strain GC 4557): 2 µg/mL (≈ 1.41 µM)
MIC Enterococcus avium (GC 4558) (Enterococcus sp.; strain GC 4558): 4 µg/mL (≈ 2.83 µM)
MIC Enterococcus faecalis (GC 6189) (Enterococcus sp.; strain GC 6189): 2 µg/mL (≈ 1.41 µM)
MIC Escherichia coli (ATCC 25922) (Escherichia coli; strain ATCC 25922): 32 µg/mL (≈ 22.6 µM)
MIC Escherichia coli (GC 4559) (Escherichia coli; strain GC 4559): 32 µg/mL (≈ 22.6 µM)
MIC Escherichia coli (GC 4560) (Escherichia coli; strain GC 4560): 1 µg/mL (≈ 0.707 µM)
MIC Coagulase Negative Staphylococcus (GC 4547) (Staphylococcus sp.): 1 µg/mL (≈ 0.707 µM)
MIC Coagulase Negative Staphylococcus (GC 4548) (Staphylococcus sp.): 0.5 µg/mL (≈ 0.353 µM)
MIC Coagulase Negative Staphylococcus (GC 4549) (Staphylococcus sp.): 0.5 µg/mL (≈ 0.353 µM)
MIC Coagulase Negative Staphylococcus (GC 4551) (Staphylococcus sp.): 2 µg/mL (≈ 1.41 µM)
MIC Coagulase Negative Staphylococcus (GC 6257) (Staphylococcus sp.): 1 µg/mL (≈ 0.707 µM)
MIC Staphylococcus aureus (ATCC 29213) (Staphylococcus sp.): 1 µg/mL (≈ 0.707 µM)
MIC Staphylococcus aureus (GC 1131) (Staphylococcus sp.): 2 µg/mL (≈ 1.41 µM)
MIC Staphylococcus aureus (GC 3051) (Staphylococcus sp.): 1 µg/mL (≈ 0.707 µM)
MIC Staphylococcus aureus (GC 3053) (Staphylococcus sp.): 1 µg/mL (≈ 0.707 µM)
MIC Staphylococcus aureus (GC 4541) (Staphylococcus sp.): 1 µg/mL (≈ 0.707 µM)
MIC Staphylococcus aureus (GC 4542) (Staphylococcus sp.): 1 µg/mL (≈ 0.707 µM)
MIC Staphylococcus aureus (GC 4544) (Staphylococcus sp.): 2 µg/mL (≈ 1.41 µM)
MIC Staphylococcus aureus (GC 4545) (Staphylococcus sp.): 2 µg/mL (≈ 1.41 µM)
MIC Staphylococcus aureus-SMITH (GC 4543) (Staphylococcus sp.): 1 µg/mL (≈ 0.707 µM)
MIC Staphylococcus haemolyticus (GC 4546) (Staphylococcus sp.): 1 µg/mL (≈ 0.707 µM)
MIC Staphylococcus aureus (GC 1131) (Staphylococcus sp.; inoculum 5×10^5 CFU/mL, strain GC 1131): 2 µg/mL (≈ 1.41 µM)
MIC Staphylococcus aureus (ATCC 29213) (Staphylococcus sp.; strain ATCC 29213): 1 µg/mL (≈ 0.707 µM)
MIC Staphylococcus aureus (GC 3051) (Staphylococcus sp.; strain GC 3051): 1 µg/mL (≈ 0.707 µM)
MIC Staphylococcus aureus (GC 3053) (Staphylococcus sp.; strain GC 3053): 1 µg/mL (≈ 0.707 µM)
MIC Staphylococcus aureus (GC 4541) (Staphylococcus sp.; strain GC 4541): 1 µg/mL (≈ 0.707 µM)
MIC Staphylococcus aureus (GC 4542) (Staphylococcus sp.; strain GC 4542): 1 µg/mL (≈ 0.707 µM)
MIC Staphylococcus aureus (GC 4544) (Staphylococcus sp.; strain GC 4544): 2 µg/mL (≈ 1.41 µM)
MIC Staphylococcus aureus (GC 4545) (Staphylococcus sp.; strain GC 4545): 2 µg/mL (≈ 1.41 µM)
MIC Staphylococcus haemolyticus (GC 4546) (Staphylococcus sp.; strain GC 4546): 1 µg/mL (≈ 0.707 µM)
MIC Coagulase Negative Staphylococcus (GC 4547) (Staphylococcus sp.; strain GC 4547): 1 µg/mL (≈ 0.707 µM)
MIC Coagulase Negative Staphylococcus (GC 4548) (Staphylococcus sp.; strain GC 4548): 0.5 µg/mL (≈ 0.353 µM)
MIC Coagulase Negative Staphylococcus (GC 4549) (Staphylococcus sp.; strain GC 4549): 0.5 µg/mL (≈ 0.353 µM)
MIC Coagulase Negative Staphylococcus (GC 4551) (Staphylococcus sp.; strain GC 4551): 2 µg/mL (≈ 1.41 µM)
MIC Coagulase Negative Staphylococcus (GC 6257) (Staphylococcus sp.; strain GC 6257): 1 µg/mL (≈ 0.707 µM)
MIC Staphylococcus aureus-SMITH (GC 4543) (Staphylococcus sp.; strain SMITH GC 4543): 1 µg/mL (≈ 0.707 µM)
MIC Streptococcus agalactiae (GC 4564) (Streptococcus sp.; Streptococcus agalactiae (GC 4564)): 0.25 µg/mL (≈ 0.177 µM)
MIC Streptococcus pneumoniae (ATCC 6301) (Streptococcus sp.; Streptococcus pneumoniae (ATCC 6301)): <0.06 µg/mL
MIC Streptococcus pneumoniae (GC 1894) (Streptococcus sp.; Streptococcus pneumoniae (GC 1894)): <0.06 µg/mL
MIC Streptococcus pneumoniae (GC 4565) (Streptococcus sp.; Streptococcus pneumoniae (GC 4565)): <0.06 µg/mL
MIC Streptococcus pyogenes (GC 4563) (Streptococcus sp.; Streptococcus pyogenes (GC 4563)): 0.25 µg/mL (≈ 0.177 µM)
MIC Streptococcus pneumoniae (ATCC 6301) (Streptococcus sp.; strain ATCC 6301): <0.06 µg/mL
MIC Streptococcus pneumoniae (GC 1894) (Streptococcus sp.; strain GC 1894): <0.06 µg/mL
MIC Streptococcus pyogenes (GC 4563) (Streptococcus sp.; strain GC 4563): 0.25 µg/mL (≈ 0.177 µM)
MIC Streptococcus agalactiae (GC 4564) (Streptococcus sp.; strain GC 4564): 0.25 µg/mL (≈ 0.177 µM)
MIC Streptococcus pneumoniae (GC 4565) (Streptococcus sp.; strain GC 4565): <0.06 µg/mL
median effective dose (ED50), Enterococcus faecalis (GC 6189) [1]: 0.5 mg/kg
median effective dose (ED50), Staphylococcus aureus-SMITH (GC 4543) [2]: 0.32 mg/kg
